Molecular target: T1, hOX2R (Homo sapiens, UniProt O43614)
T1 construct: expressed in transfected cells; host or cells: CHO cells (G418 selection)
T1 sequence (O43614 1-444): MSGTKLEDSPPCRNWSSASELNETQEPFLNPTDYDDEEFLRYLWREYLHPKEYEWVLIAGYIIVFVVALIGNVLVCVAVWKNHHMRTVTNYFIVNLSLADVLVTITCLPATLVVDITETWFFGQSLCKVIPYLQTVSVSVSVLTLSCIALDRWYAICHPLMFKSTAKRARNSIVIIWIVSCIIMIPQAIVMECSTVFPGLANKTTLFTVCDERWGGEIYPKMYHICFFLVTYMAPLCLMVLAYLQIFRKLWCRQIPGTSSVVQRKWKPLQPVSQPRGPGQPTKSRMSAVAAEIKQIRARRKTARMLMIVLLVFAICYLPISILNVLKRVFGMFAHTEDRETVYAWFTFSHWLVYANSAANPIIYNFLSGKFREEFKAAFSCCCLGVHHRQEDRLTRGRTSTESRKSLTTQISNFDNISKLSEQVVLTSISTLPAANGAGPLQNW
Test: hOX2R IPone assay (orexin receptor agonism)
Assay type: cell-based
Settings: IPone readout; for hOX2R_Ipone max %act: maximal activation; for EC50: orexin receptor agonist, read-out: hOX2R_IPone EC50

SMILES	hOX2R_Ipone max %act [%]	EC50 [nM]
CCN1C(=O)NC(CCC(F)F)CCCCCOc2cc(nn3ccnc23)-c2cc(ncc2F)[C@H]1C (stereo partly drawn) [Example 204, (3R,E)-7-(3,3-difluoropropyl)-4-ethyl-25-fluoro-3-methyl-13-oxa-4,6-diaza-1(6,8)-imidazo[1,2-b]pyridazina-2(4,2)-pyridina-cyclotridecaphan-5-one]	100.5	2.11
CCN1C(=O)N[C@@H](CCC(F)(F)F)CCCCOc2nc(cn3ncnc23)-c2cc(ncc2OC)C1C(F)(F)F (single isomer, unassigned) [Example 34A]	99.9	541
CCN1C(=O)N[C@@H](CCC(C)(F)F)COCCCOc2nc(cn3ncnc23)-c2cc(ncc2C)[C@H]1C [Example 153, (3R,7S,E)-7-(3,3-difluorobutyl)-4-ethyl-25,3-dimethyl-9,13-dioxa-4,6-diaza-1(6,8)-[1,2,4]triazolo[1,5-a]pyrazina-2(4,2)-pyridinacyclotridecaphan-5-one]	107.8	2.2
CCN1C(=O)NC(CCC(C)F)CCCCCOc2nc(cn3ccnc23)-c2cc(ncc2OC)[C@H]1C (single isomer, unassigned) [Example 72A]	99.5	5.6
CCN1C(=O)NC(COC(C)C)CCCCCOc2nc(cn3ccnc23)-c2cc(ncc2OC)[C@H]1C (stereo partly drawn) [Example 185, (3R,E)-4-ethyl-7-(isopropoxymethyl)-25-methoxy-3-methyl-13-oxa-4,6-diaza-1(6,8)-imidazo[1,2-a]pyrazina-2(4,2)-pyridinacyclotridecaphan-5-one]	102.1	2.03
CCN1C(=O)N[C@@H](CCC(F)(F)F)CCCCCOc2nc(cn3c(C)cnc23)-c2cc(nc3ccoc23)C1C (single isomer, unassigned) [Example 76A]	98.9	204
CCN1C(=O)NCCNCCCOc2cn3ccnc3c(n2)-c2cccc(c2)[C@H]1C [Example 10, (R,E)-4-ethyl-3-methyl-13-oxa-4,6,9-triaza-1(6,8)-imidazo[1,2-a]pyrazina-2(1,3)-benzenacyclotridecaphan-5-one]	97.61	950
CCN1C(=O)NC(CCCOC)CCCCCOc2nc(cn3ccnc23)-c2cc(ncc2OC)[C@H]1C (single isomer, unassigned) [Example 60A]	100.4	52.1
CCN1C(=O)NC(C(N)=O)CCCCCOc2nc(cn3ccnc23)-c2cc(ncc2F)[C@H]1C (stereo partly drawn) [Example 225, (3R,E)-4-ethyl-25-fluoro-3-methyl-5-oxo-13-oxa-4,6-diaza-1(6,8)-imidazo[1,2-a]pyrazina-2(4,2)-pyridinacyclotridecaphane-7-carboxamide]	78.64	286
CCN1C(=O)N[C@@H](CCC(F)(F)F)CCCCCOc2nc(cn3ccnc23)-c2cc(cnc2C)[C@H]1C [Example 78, (12R,16R)-13-ethyl-8,12-dimethyl-16-(3,3,3-trifluoropropyl)-12,13,16,17,18,19,20, 21-octahydro-6,23-(azeno)-11,7-(metheno)imidazo[2,1-c][1,4,9,13,15]oxatet-raazacyclohenicosin-14(15H)-one]	99.0	1.7
CCN1C(=O)N[C@@H](CCC(F)(F)F)CCCCCOc2nc(cn3ccnc23)-c2cc(ccn2)[C@@H]1C [Example 113A, (12S,16R)-13-ethyl-12-methyl-16-(3,3,3-trifluoropropyl)-12,13,16,17,18,19,20,21-octahydro-6,23-(azeno)-11,7-(metheno)imidazo[2,1-c][1,4,8,13,15]oxatetraazacyclohenicosin-14(15H)-one]	98.1	105
CCN1C(=O)N[C@@H](CF)CCCCCOc2nc(cn3ccnc23)-c2cc(ncc2OC)[C@H]1C [Example 126, (3R,7R,E)-4-ethyl-7-(fluoromethyl)-25-methoxy-3-methyl-13-oxa-4,6-diaza-1(6,8)-imidazo[1,2-a]pyrazina-2(4,2)-pyridinacyclotridecaphan-5-one]	96.84	9.38
CCN1C(=O)N[C@@H](CCC(F)(F)F)CCCCCOc2nc(cn3ccnc23)-c2cc(ncn2)[C@H]1C [Example 112A, (12R,16R)-13-ethyl-12-methyl-16-(3,3,3-trifluoropropyl)-12,13,16,17,18,19,20,21-octahydro-6,23-(azeno)-11,7-(metheno)imidazo[2,1-c][1,4,8,10,13,15]oxapentaazacyclohenicosin-14(15H)-one]	101.2	6.8
CCN1C(=O)N[C@@H](C)/C=C/CC2(CCOCC2)COc2nc(cn3ccnc23)-c2cc(ncc2OC)[C@H]1C [Example 222, (3′R,7'S,7′E,8′E)-4′-ethyl-5′-methoxy-3′,7′-dimethyl-2,3,5,6-tetrahydrospiro[pyran-4,11′-13-oxa-4,6-diaza-1(6,8)-imidazo[1,2-a]pyrazina-2(4,2)-pyridinacyclotridecaphanen]-8′-en-5′-one]	61.55	760
CCN1C(=O)NC(CC2CCOC2)CCCCCOc2nc(cn3ccnc23)-c2cc(ncc2OC)[C@H]1C (single isomer, unassigned) [Example 67B]	101	2.1
CCN1C(=O)N[C@@H](CCC(F)(F)F)COCCCOc2nc(cn3cnnc23)-c2cc(ncc2OC)[C@H]1C [Example 173, (3R,7S,E)-4-ethyl-25-methoxy-3-methyl-7-(3,3,3trifluoropropyl)-9,13-dioxa-4,6-diaza-1(6,8)-[1,2,4]triazolo[4,3-a]pyrazina-2(4,2)-pyridinacyclotridecaphan-5-one]	103.9	3.71
CCN1C(=O)N[C@@H](CCC(F)(F)F)CCCCCOc2nc(cn3ncnc23)-c2ccnc(c2)[C@H]1C [Example 142, (3R,7R,E)-4-ethyl-3-methyl-7-(3,3,3-trifluoropropyl)-13-oxa-4,6-diaza-1(6,8)-[1,2,4]triazolo[1,5-a]pyrazina-2(4,2)-pyridinacyclotridecaphan-5-one]	100.3	4.71
CCN1C(=O)N[C@@H](CCC(F)(F)F)CCCCCCc2nc(cn3ccnc23)-c2cc(ncc2OC)[C@H]1C [Example 81, (12R,16R)-13-ethyl-8-methoxy-12-methyl-16-(3,3,3-trifluoropropyl)-12,13,15,16,17,18,19, 20,21,22-decahydro-14H-6,23-(azeno)-11,7-(metheno) imidazo[1,2-l][1,3,6,12]tetraazacy-clohenicosin-14-one]	100.1	3.3

Compounds with a lower EC50, results first:

hOX2R_Ipone max %act [%]	EC50 [nM]	SMILES
102.4	1.5	CCN1C(=O)N[C@@H](CCC(F)(F)F)CCCCCCOc2nc(cn3ccnc23)-c2cc(ncc2OC)[C@H]1C [Example 109, (3R,7R,E)-4-ethyl-25-methoxy-3-methyl-7-(3,3,3-trifluoropropyl)-14-oxa-4,6-diaza-1(6,8)-imidazo[1,2-a]pyrazina-2(4,2)-pyridinacyclotetra-decaphan-5-one]
101.5	1.5	CCN1C(=O)NC(C2CCOCC2)CCCCCOc2nc(cn3ccnc23)-c2cc(ncc2OC)[C@H]1C (single isomer, unassigned) [Example 68B]
100.9	1.4	CCOCC1CCCCCOc2nc(cn3ccnc23)-c2cc(ncc2OC)[C@@H](C)N(CC)C(=O)N1 (single isomer, unassigned) [Example 62B]
100.9	1.3	CCN1C(=O)NC(CC2CCC2)CCCCCOc2nc(cn3ccnc23)-c2cc(ncc2OC)[C@H]1C (single isomer, unassigned) [Example 61B]
102.3	1.02	CCN1C(=O)NC(CC(F)F)CCCCCOc2nc(cn3ccnc23)-c2cc(ncc2OC)[C@H]1C (stereo partly drawn) [Example 186, (3R,E)-7-(2,2-difluoroethyl)-4-ethyl-25-methoxy-3-methyl-13-oxa-4,6-diaza-1(6,8)-imidazo[1,2-a]pyrazina-2(4,2)-pyridinacyclotridecaphan-5-one]
100.7	1	CCCC1CCCCCOc2nc(cn3ccnc23)-c2cc(ncc2OC)[C@@H](C)N(CC)C(=O)N1 (single isomer, unassigned) [Example 54B]
99.6	0.8	CCN1C(=O)NC(CCOC(F)(F)F)CCCCCOc2nc(cn3ccnc23)-c2cc(ncc2OC)[C@H]1C (single isomer, unassigned) [Example 73B]
98.7	0.8	CCN1C(=O)N[C@@H](CCC(F)(F)F)CCCCCOc2cc(cn3ccnc23)-c2nc(ccc2OC)[C@H]1C [Example 50, (3R,7R,E)-4-ethyl-23-methoxy-3-methyl-7-(3,3,3-trifluoropropyl)-13-oxa-4,6-diaza-1(6,8)-imidazo[1,2-a]pyridina-2(2,6)-pyridinacyclotridecaphan-5-one]
101.1	0.78	CCN1C(=O)NC(CCCC(F)F)CCCCCOc2nc(cn3ccnc23)-c2cc(ncc2OC)[C@H]1C (stereo partly drawn) [Example 184, (3R,E)-7-(4,4-difluorobutyl)-4-ethyl-25-methoxy-3-methyl-13-oxa-4,6-diaza-1(6,8)-imidazo[1,2-a]pyrazina-2(4,2)-pyridinacyclotridecaphan-5-one]
101.1	0.6	CCN1C(=O)NC(CC2CC(F)(F)C2)CCCCCOc2nc(cn3ccnc23)-c2cc(ncc2OC)[C@H]1C (single isomer, unassigned) [Example 69B]

From US12686690B2, “Macrocyclic urea orexin receptor agonists” (Merck Sharp & Dohme LLC, priority 2020, dated 2026)
